Where two headings read alike, the source gives them in different places.
Experiments:
[1] = tested on: A2780 ovarian cancer cells; conditions: for Paclitaxel Max. Synergy / Paclitaxel Total Synergy: combination with paclitaxel; for Paclitaxel Max. Synergy / Paclitaxel Total Synergy / Vinorelbine Max. Synergy / Vinorelbine Total Synergy: Bliss score; for Paclitaxel Max. Synergy / Vinorelbine Max. Synergy: highest individual score of 6×6 matrix; for Paclitaxel Total Synergy / Vinorelbine Total Synergy: sum over matrix; for Vinorelbine Max. Synergy / Vinorelbine Total Synergy: combination with vinorelbine
Procedure: (§3) The A2780 cell line was maintained as a monolayer in Dulbeccos Modified Eagles medium (DMEM) supplemented with 10% foetal bovine serum (FBS) and grown at 37° C. in a humidified atmosphere with 5% CO2. […] Each screening plate contained one 6×6 dose matrix for two drugs using two-fold dilution steps. […] Viability was measured after 72 hours using a standard MTS assay.
(§4) Synergistic drug interactions were determined for each pairwise drug combination by applying the Bliss-independence model that assumes independence of drug mechanisms.
(§5) The Bliss additivism model was used to calculate a predicted combined response C to two single agents with responses A and B (using GI values), as follows:
(§6) The final score for any combination was reported as the difference between the value predicted by the additive model and the experimentally observed value, normalised to 100. Using GI values the maximum possible synergy score is 100, with 0 indicating no synergy and negative indicating possible antagonism. Scores were also reported as a “Max synergy” score, which is the highest individual synergy score for each combination matrix, and a “Total synergy” score, which was obtained by summation of each individual synergy score for the matrix.

PC3 (prostate) = assay: Anti-proliferative activity against PC3 prostate cancer cells; assay type: cell-based; conditions: 72 h exposure
Procedure: (§1) The ability of compounds of the invention to inhibit the proliferation of cancer cells representative of non-small cell lung cancer and ovarian cancer (Table 2), pancreatic cancer, colorectal cancer and prostate cancer (Table 3) was assessed. Briefly, a predetermined number of cells as calculated from cell growth assays for each of the cell lines employed were seeded into their respective culture medium (using ATCC culture parameters—http://www.atcc.org) and cultured for 24 h at 37° C. and 5% CO2 in 96-well culture plates. Once attached, each cell line was then exposed to various concentrations of each respective analogue (30, 10, 3, 1, 0.3 and 0.1 μM), cultured for a further 72 h and exposed to Cell-Titre luminescent reagent (100 μL/well) for a further 30 min. Luminescence was captured using an EnVision multilabel reader and the data for each analogue concentration compared against no treatment control. Cell viability was normalised to control (vehicle alone) and dose response curves, and half maximal effective concentration (EC50) values were determined using Graph Pad Prism 6 (nonlinear regression sigmoidal dose-response variable slope).

[2] = tested on: A2780 ovarian cancer cells; assay: cells; conditions: Homo sapiens, A2780, 72 h, read-out: IC50 values used for the dose matrix (compounds)
Procedure: as §3, §4, §5, §6

[3] = tested on: Tpm3.1-containing actin microfilaments; assay: Disruption of Tpm3.1-containing actin microfilaments in SK-N-SH cells (imaging and quantitation); assay type: cell-based; conditions: SK-N-SH cells expressing Tpm3.1-mCherry, 24 hours, two concentrations
Procedure: The ability of compounds 57, 87 and 92 to disrupt Tpm3.1-containing actin microfilaments was investigated in SK-N-SH neuroblastoma cells that express Tpm3.1 labelled with the mCherry fluorophore. Cells were seeded at 3×10^4 cells per well in a volume of 1000 μL complete media onto a 12 well plate containing 13 mm coverslips and left to plate down for 24 hours prior to treatment. Cells were then treated with DMSO and two concentrations of the test compounds. 24 hours post-treatment, cells were fixed with 16% paraformaldehyde (PBS) and stained with 488-Atto-Phalloidin to visualise the actin filament bundles. Single plane images were obtained using the Olympus IX83 epi-fluorescence microscope. Ten fields of view were collected for both Tpm3.1 mCherry fluorophore (FIG. 4) and 488-Atto-Phalloidin (FIG. 5) with each treatment condition.
Quantitation of either Tpm3.1 mCherry filaments or 488-Atto-Phalloidin filaments was performed using ImageJ 1.52p software (ImageJ, NIH). The mean pixel intensity from a cell was measured by using a line across the entire cell cytoplasmic area above or below the nuclear region. The line was made to cross the filament bundles at a […] for the measurement rather than run along a single filament. A total of n=100 cells were measured from ten fields of view. Cells with pixel intensities that were more than twice the average intensity in the field were excluded from the measurement. The mean pixel intensity from n=100 cells was imported into Microsoft Excel to obtain the average intensity of either Tpm3.1 mCherry filaments or 488-Atto-Phalloidin filaments from each treatment condition. Values were normalised as a percent of the 0 μM control in order to generate a bar graph.

A549 (NSCLC) = assay: Anti-proliferative activity (Cell-Titre luminescence) against A549 non-small cell lung cancer cells; assay type: cell-based; conditions: Homo sapiens, A549, 72 h, 72 h exposure, Cell-Titre luminescent reagent
Procedure, shortened: (§2)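 EC50 derived by nonlinear variable-slope sigmoidal fit of luminescent Cell-Titre viability, normalised to vehicle control. Compound (0.1–30 μM, six concentrations) applied for 72 h after 24 h attachment at 37 °C, 5% CO2.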

A2780 (ovarian) = assay: Anti-proliferative activity (Cell-Titre luminescence) against A2780 ovarian cancer cells; assay type: cell-based; conditions: Homo sapiens, A2780, 72 h, 72 h exposure, Cell-Titre luminescent reagent
Procedure, shortened: as §2

Tpm3.1 [4] = molecular target: T1, Tpm3.1 (Homo sapiens, UniProt P06753); assay: Actin depolymerisation assay; assay type: biochemical; conditions: 50 μmol/L test compound, pyrene-labelled F-actin, 160 minutes
Procedure: A 12 μmol/L solution of labelled F-actin was prepared by polymerising the monomeric actin (35% pyrene labelled Rabbit Muscle (Cytoskeleton Inc)) into filaments in the presence of buffer T (100 mmol/L NaCl; 10 mmol/L Tris HCl pH 7.5; 2 mmol/L MgCl2; 1 mmol/L EGTA; 0.5 mmol/L DTT) with added ATP (0.2 mmol/L), for 1 hour in the dark at room temperature. Tpm3.1 (10 μmol/L) was reduced in buffer T containing 1 mmol/L DTT at 70° C. for 6 minutes and centrifuged at 60,000 rpm for 30 minutes to remove nonreduced dimers. […] Duplicate samples were diluted 12-fold using an F-actin polymerisation buffer (100 mmol/L NaCl; 10 mmol/L Tris HCl pH 7; 2 mmol/L MgCl2; 1 mmol/L EGTA; 0.2 mmol/L ATP; 1 mmol/L DTT) and the depolymerisation rates of F-actin alone, F-actin/Tpm3.1, and the F-actin/Tpm3.1/test compound filament complex were measured using a Costar 3915 fluorescence plate reader (407 nm) at 36-second intervals for 160 minutes at room temperature. Data were normalized to the initial fluorescence value and polymerisation curves of duplicate samples were fitted to a two-phase exponential decay model using OriginPro 9.1 (OriginLab) (FIG. 3A). Percent polymerisation was determined at t160 as a function of to (100%) (FIG. 3B, p<0.0001).
Target sequence in this assay (P06753 1-248 isoform P06753-2): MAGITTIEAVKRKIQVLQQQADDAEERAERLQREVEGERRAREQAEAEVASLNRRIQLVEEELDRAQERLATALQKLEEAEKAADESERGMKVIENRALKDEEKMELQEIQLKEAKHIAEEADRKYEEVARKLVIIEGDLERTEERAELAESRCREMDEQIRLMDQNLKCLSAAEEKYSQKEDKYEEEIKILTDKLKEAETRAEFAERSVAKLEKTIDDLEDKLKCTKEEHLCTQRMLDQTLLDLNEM

Tpm3.1 [5] = molecular target: T1, Tpm3.1; assay: Circular dichroism spectroscopy, thermal unfolding of Tpm3.1 peptides; assay type: binding; parameters: N-terminus (residues 2-80 with an initial Ala-Gly dipeptide to mimic N-terminal acetylation) of Tpm3.1; Peptides corresponding to the C-terminus (residues 139-248) and N-terminus; made in house; conditions: test compound 100 μM, peptide 20 μM, CD at 222 nm
Procedure: The interactions of compounds 11, 13, 32 and 92 with the N-terminus and overlap region of Tpm3.1 were measured using circular dichroism (CD) spectroscopy (see FIG. 1). Peptides corresponding to the C-terminus (residues 139-248) and N-terminus (residues 2-80 with an initial Ala-Gly dipeptide to mimic N-terminal acetylation) of Tpm3.1 were prepared as described in the literature (Janco et al., 2019). CD spectra and thermal unfolding isotherms of N_82AA_Tpm3.1 and C_109AA_Tpm3.1 peptides were acquired on a Chirascan Plus CD Spectrometer (Applied Photophysics Limited, U.K.) in stoppered 0.5 mm cuvettes (48/Q/0.5; Starna Scientific Ltd.). Proteins were dialyzed O/N against 10 mM NaH2 PO4, 150 mM NaCl, 75 μM TCEP (added prior to experiment), 1% (v/v) acetonitrile pH 7 buffer. Final concentration of peptides was 20 μM. Tpm samples containing the test compound (100 μM) were incubated at 37° C. O/N. CD spectra were measured from 195 to 260 nm with a 1 nm step size and a […], taking 3 to 4 averages at 37° C. The thermal unfolding was carried at 222 nm over the range 20-85° C. at the rate of 1° C./min. Sample was cooled down to the initial temperature and heating procedure was repeated 2 to 3 times. To obtain information of the major thermal transitions from individual isotherms, data were further smoothed by the Savitzky-Golay method (5-point window), differentiated and then fitted to multiple Gaussian peaks as described previously (Janco et al., 2012) (FIG. 2).

Caco-2 (colorectal) = assay: Anti-proliferative activity against Caco-2 colorectal cancer cells; assay type: cell-based; conditions: Homo sapiens, 72 h exposure
Procedure: as §1

MIA PaCa-2 (pancreatic) = assay: Anti-proliferative activity against MIA PaCa-2 pancreatic cancer cells; assay type: cell-based; conditions: Homo sapiens, 72 h exposure
Procedure: as §1

[6] = tested on: SK-N-SH neuroblastoma cells; assay: Anti-proliferative activity (MTS assay) against SK-N-SH neuroblastoma cells; assay type: cell-based; conditions: Homo sapiens, SK-N-SH, 72 h
Procedure: The ability of compounds of the disclosure to inhibit the proliferation of SK-N-SH neuroblastoma cells was also assessed. […] Cell viability was normalised to control (vehicle alone) and dose response curves and IC50 values (Table 4) were determined using Graph Pad Prism 6.

SMILES	IC50 ([1]; read-out: IC50 values used for the dose matrix (cytotoxic agents), A2780, single agent, MTS 72 hours)	IC50 (PC3 (prostate))	IC50 [2]	Disruption of Tpm3.1-containing actin microfilaments [3]	IC50 (A549 (NSCLC))	IC50 (A2780 (ovarian))	Paclitaxel Max. Synergy [1]	Paclitaxel Total Synergy [1]	Vinorelbine Max. Synergy [1]	Vinorelbine Total Synergy [1]	Inhibition of Tpm3.1 protection of actin filaments from depolymerisation (Tpm3.1 [4])	Effect on melting profile of the Tpm3.1 N-terminal peptide construct (Tpm3.1 [5])	Effect on stability of the Tpm3.1 N-terminal peptide (Tpm3.1 [5])	IC50 (Caco-2 (colorectal))	IC50 (MIA PaCa-2 (pancreatic))	IC50 [6]	Effect on stability (melting profile) of the overlap complex formed by the N- and C-terminal peptides (Tpm3.1 [5])
CCC1=C[C@@H]2CN(C1)Cc1c([nH]c3ccccc13)[C@@](C(=O)OC)(c1cc3c(cc1OC)N(C)[C@H]1[C@@](O)(C(=O)OC)[C@H](OC(C)=O)[C@]4(CC)C=CCN5CC[C@]31[C@@H]54)C2 [vinorelbine, reference compound]	4 nM	–	–	–	–	–	–	–	–	–	–	–	–	–	–	–	–
OCCCNc1nc(NCCc2cccc(C(F)(F)F)c2)nc2ccccc12 [Compound 92, 3-((2-((3-(trifluoromethyl)phenethyl)amino)quinazolin-4-yl)amino)propan-1-ol]	–	4.49 µM	5000 nM	disrupt Tpm3.1-containing actin microfilaments in a dose-dependent manner	1.3 µM	2.22 µM	17.97	100.06	27.55	204.68	inhibit the ability of Tpm3.1 to protect actin filaments from depolymerisation	alter the melting profile	decrease the stability	2.48 µM	3.19 µM	2 µM	–
OCCNc1nc(NCc2ccc(C(F)(F)F)cc2)nc2ccccc12 [Compound 32, 2-((2-((4-(trifluoromethyl)benzyl)amino)quinazolin-4-yl)amino)ethan-1-ol]	–	–	–	–	4.63 µM	1.28 µM	–	–	–	–	–	alter the melting profile	decrease the stability	–	–	4.09 µM	increasing
Fc1cccc(CCNc2nc(NCCc3c[nH]cn3)c3ccccc3n2)c1 [Compound 87, N^4-(2-(1H-imidazol-4-yl)ethyl)-N^2-(3-fluorophenethyl)quinazoline-2,4-diamine]	–	4.12 µM	3000 nM	disrupt Tpm3.1-containing actin microfilaments in a dose-dependent manner	2.36 µM	2.6 µM	9.54	28.53	24.46	160.51	–	–	–	4.33 µM	2.75 µM	1.38 µM	–
CN1CCN(CCNc2nc(-c3cc[nH]c3)nc3ccccc23)CC1 [Compound 13, N-(2-(4-methylpiperazin-1-yl)ethyl)-2-(1H-pyrrol-3-yl)quinazolin-4-amine]	–	–	–	–	6.5 µM	5.65 µM	–	–	–	–	–	alter the melting profile	stabilizing effect	–	–	1.72 µM	–
CN1CCN(CCNc2nc(-c3ccsc3)nc3ccccc23)CC1 [Compound 11, N-(2-(4-methylpiperazin-1-yl)ethyl)-2-(thiophen-3-yl)quinazolin-4-amine]	–	–	–	–	10.3 µM	6.43 µM	–	–	–	–	–	alter the melting profile	decrease the stability	–	–	9.11 µM	decreasing
CCc1ccc(CCNc2nc(NCCN3CCN(C)CC3)c3ccccc3n2)cc1 [Compound 57, N^2-(4-ethylphenethyl)-N^4-(2-(4-methylpiperazin-1-yl)ethyl)quinazoline-2,4-diamine]	–	1.48 µM	–	disrupt Tpm3.1-containing actin microfilaments in a dose-dependent manner	1.53 µM	0.655 µM	–	–	–	–	–	–	–	1.12 µM	1.02 µM	1.11 µM	–

From patent US20230339866A1, “Quinazoline compounds and the use thereof in the treatment of cancer” (TROBIO THERAPEUTICS PTY LTD, priority 2020, published 2023)
